Patent US20180021315A1, “METHODS OF TREATING HEARING DISORDERS” (Wayne State University, priority 2016, published 2018)

Experiments:
Type in all cases: in vivo, rat
TNF-α = TNF-α immunostaining densitometry of microglia and astrocytes after blast
Text: (§1) FIGS. 23A and 23B depict densitometry measurements of ionized calcium-binding adapter molecule 1 (Iba-1) and TNF-α expression, respectively, as observed by fluorescence microscopy of immunohistochemistry-stained microglia. […] Error bars in FIGS. 23A-23B depict standard deviation.
(§2) FIGS. 24A and 24B depict densitometry measurements of glial fibrillary acidic protein (GFAP) and TNF-α expression, respectively, as observed by fluorescence microscopy of immunohistochemistry-stained AC astrocytes. […] The decrease in astrocyte TNF-α expression was relatively smaller than the decrease in microglial TNF-α expression (compare […] with FIG. 23B). […] Error bars in FIGS. 24A-24B depict standard deviation.

[1] = tested on: glial fibrillary acidic protein (GFAP); assay: GFAP immunostaining densitometry of AC astrocytes after blast; settings: immunostained AC astrocytes, FIG. 24B
Text: as §2

AC pyramidal neurons = assay: Patch clamp recording of miniature synaptic currents in AC slices after blast exposure
Description: Two groups of 7 rats each were exposed to blast shockwaves as described above, and an additional group of 7 rats was sham-exposed. One of the exposed groups was administered 3,6′-dithiothalidomide for five days starting on the day of the exposure, and the other exposed group was administered vehicle. Brain slides were prepared from the AC of the rats 10-20 days after the blast exposure. Pyramidal neurons were recorded using the patch clamp method. Miniature synaptic currents were recorded to assess the functional states of the excitatory and inhibitory synaptic transmission. Neurons were filled with biocytin, which was stained with immunocytochemistry to reveal the morphology of the recorded neurons.

blast-exposed rats = assay: Blast-induced tinnitus behavioral testing (gap detection and PPI, startle reflex), 3,6′-dithiothalidomide
Description: Each of the rats was subjected to blast exposure in the left ear using a shock tube (ORA Inc.) located at the Wayne State University Bioengineering Center. The blast exposure of each rat was performed under anesthesia with a mixture of air (1 liter/min) and isoflurane (5% v/v). The rat was placed on supportive netting with a metal surround and secured on a pole with its head facing the oncoming shockwave. During blast exposure, the rat's right ear was occluded with a silicone earplug (Mack's; McKeon Products, Warren, Mich.), followed by application of mineral oil to seal any remaining openings. The average energy under 10 kHz measured at 22 psi was equivalent to 150 kPa or 197.5 dB SPL. After blast exposure, each rat was transferred to a polycarbonate cage.
Thirty two rats from Example 10 were used. Behavioral tinnitus testing, including gap detection and PPI testing, was conducted with Hamilton-Kinder startle-reflex hardware and software. During behavioral testing, each rat was placed in an individual noise-attenuation chamber to perform gap and PPI testing. In the gap procedure, each rat was presented with a constant 60-dB SPL background noise composed of 2,000 Hz bandpass signals at 6-8, 10-12, 14-16, 18-20, or 26-28 kHz or broadband noise (BBN; 2-30 kHz). A 115 dB SPL, 50 ms noise-burst was used as the startle stimulus to induce the acoustic startle reflex. The background noise session contained two conditions, one condition was the startle only condition in which rat was presented with the startle stimulus alone, and the other condition was the gap condition in which a rat was presented with a startle stimulus preceded by a silent gap embedded within the background noise. Silent gaps were 40 ms in duration with a lead interval of 90 ms to the startle stimulus. The startle reflex of rats was measured in response to 3 conditions: 1) background noise alone, 2) startle only, and 3) gap. Detection of the gap results in a reduction in the startle amplitude. Development of tinnitus in a specific frequency band impairs gap detection in the corresponding gap-carrier band, and thus, the startle amplitude reaches amplitudes elicited without the gap. For the PPI procedure, the parameters were almost the same as with gap except that no background noise or silent gap was used. The startle amplitude of rats in response to the two conditions was measured: the startle-only condition and a prepulse followed by the startle stimulus. In the latter condition, a 60-dB SPL, 40-msec prepulse was introduced 90 msec before the startle stimulus. The acoustic startle reflex of the rat decreased in response to the prepulse except when the rat had hearing loss at a frequency similar to the prepulse.
Rats were exposed or sham-exposed to a blast shockwave. To determine whether TNF-α is involved in blast-induced tinnitus, the rats were injected once daily for 5 days with 3,6′-dithiothalidomide starting 7 days after blast exposure. Behavioral testing and ABR recordings started 1 day after drug injection and lasted for three weeks.

[2] = tested on: ionized calcium-binding adapter molecule 1 (Iba-1); assay: Iba-1 immunostaining densitometry of microglia after blast; settings: immunostained microglia, FIG. 23A
Text: as §1

SMILES: O=C1NC(=S)CCC1N1C(=O)c2ccccc2C1=S (stereo not shown) [3,6′-dithiothalidomide]
- blast-induced astrocyte TNF-α expression (TNF-α; immunostained AC astrocytes, FIG. 24A): partially blocked
- blast-induced microglial TNF-α expression (TNF-α; immunostained microglia, FIG. 23B): is blocked
- blast-induced astrocyte GFAP expression [1]: is blocked
- cumulative distribution of mIPSC frequency (blast-induced shift to lower frequencies) (AC pyramidal neurons; 56 mg/kg i.p., Kolmogorov-Smirnov Test p<0.001, FIG. 19): reversed this effect
- mIPSCs in recording traces of auditory cortical neurons (AC pyramidal neurons; blast-exposed rats, drug for five days from day of exposure, vs vehicle-treated, FIG. 17C): less reduction in mIPSCs
- mIPSC frequency (blast-induced reduction) (AC pyramidal neurons; blast-exposed rats, 56 mg/kg i.p. daily, FIG. 18B): completely abolished the blast-induced reduction
- mIPSC amplitude (AC pyramidal neurons; blast-exposed rats, 56 mg/kg i.p., relative to sham-blast controls, FIG. 18A): did not significantly change mIPSC amplitudes
- startle force of the startle-only condition, gap test (blast-exposed rats; acute tinnitus rats, 56 mg/kg i.p., post drug vs post blast, FIG. 14A): recovered significantly
- startle force of the startle-only condition, PPI test (blast-exposed rats; acute tinnitus rats, 56 mg/kg i.p., post drug vs post blast, FIG. 14B): recovered significantly
- gap ratio values (gap/startle-only response) (blast-exposed rats; deficit at 7 days after blast, after 5 days of treatment, FIG. 15A): recovered significantly
- PPI ratio values (PPI/startle-only response) (blast-exposed rats; deficit at 7 days after blast, after 5 days of treatment, FIG. 15B): recovered significantly
- tinnitus score (blast-exposed rats; tinnitus 7 days after blast, after 5 days of treatment, FIG. 16A): recovered significantly
- blast-induced microglial activation (Iba-I staining) [2]: not blocked
